ChEMBL document CHEMBL3244272, “Folate antagonists. 15. 2,3-Diamino-6-(2-naphthylsulfonyl)quinazoline and related 2,4-diamino-6-[(phenyl and naphthyl)sulfinyl and sulfonyl]quinazolines, a potent new class of antimetabolites with phenomenal antimalarial activity” (J Med Chem, 1979)
Values after ≈ are worked out from the molar mass of the structure shown. Active and inactive are the calls of the source. The calls are words filed in the database; no cut-off is given here.

Experiments:
Plasmodium berghei [1] = test: Antimalarial activity against trophozoite-induced Plasmodium berghei infected in mouse assessed as change in mean survival time at 160 mg/kg, sc single dose after 72 hrs of infection; type: functional; settings: route subcutaneous
Plasmodium berghei [2] = test: Antimalarial activity against trophozoite-induced Plasmodium berghei infected in mouse assessed as change in mean survival time at 10 mg/kg, sc single dose after 72 hrs of infection; type: functional; settings: route subcutaneous
Plasmodium gallinaceum [3] = test: Antimalarial activity against sporozoite-induced Plasmodium gallinaceum infected in chick assessed as change in cured at 15 mg/kg, sc single dose; type: functional; settings: route subcutaneous
Plasmodium berghei [4] = test: Antimalarial activity against trophozoite-induced Plasmodium berghei infected in sc dosed mouse assessed as minimum curative dose; type: functional
Gallus gallus = test: Toxicity in trophozoite-induced Plasmodium gallinaceum infected in chick assessed as death at 120 mg/kg, sc single dose measured within 48 hrs; type: organism-based; design: dose 120 mg/kg, route subcutaneous; settings: chicken, in vivo
Staphylococcus aureus [5] = test: Antibacterial activity against Staphylococcus aureus UC-76 assessed as growth inhibition; type: functional
Plasmodium gallinaceum [6] = test: Antimalarial activity against trophozoite-induced Plasmodium gallinaceum infected in chick assessed as mean survival time at 120 mg/kg, sc single dose (reference value: 4 days); type: functional; settings: route subcutaneous
Enterococcus faecalis = test: Antibacterial activity against Streptococcus faecalis MGH-2 assessed as growth inhibition; type: functional
Staphylococcus aureus [7] = test: Antibacterial activity against Staphylococcus aureus S18713 assessed as growth inhibition; type: functional
Plasmodium berghei [8] = test: Antimalarial activity against trophozoite-induced Plasmodium berghei infected in mouse assessed as change in mean survival time at 320 mg/kg, sc single dose after 72 hrs of infection; type: functional; settings: route subcutaneous
Plasmodium berghei [9] = test: Antimalarial activity against trophozoite-induced Plasmodium berghei infected in mouse assessed as change in mean survival time at 80 mg/kg, sc single dose after 72 hrs of infection; type: functional; settings: route subcutaneous
Plasmodium berghei [10] = test: Antimalarial activity against trophozoite-induced Plasmodium berghei infected in mouse assessed as change in mean survival time at 40 mg/kg, sc single dose after 72 hrs of infection; type: functional; settings: route subcutaneous
Plasmodium gallinaceum [11] = test: Antimalarial activity against trophozoite-induced Plasmodium gallinaceum infected in chick assessed as cured at 120 mg/kg, sc single dose; type: functional, organism-based; design: dose 120 mg/kg
Escherichia coli = test: Antibacterial activity against Escherichia coli Vogel assessed as growth inhibition; type: functional
Plasmodium gallinaceum [12] = test: Antimalarial activity against sporozoite-induced Plasmodium gallinaceum infected in chick assessed as change in cured at 60 mg/kg, sc single dose; type: functional; settings: route subcutaneous
Shigella sonnei = test: Antibacterial activity against Shigella sonnei C-10 assessed as growth inhibition; type: functional
[13] = test system: Mycobacterium tuberculosis; test: Antibacterial activity against Mycobacterium tuberculosis H37Rv assessed as growth inhibition; type: functional
Plasmodium berghei [14] = test: Antimalarial activity against trophozoite-induced Plasmodium berghei infected in mouse assessed as change in mean survival time at 20 mg/kg, sc single dose after 72 hrs of infection; type: functional; settings: route subcutaneous
Pseudomonas aeruginosa = test: Antibacterial activity against Pseudomonas aeruginosa 28 assessed as growth inhibition; type: functional
Plasmodium gallinaceum [15] = test: Antimalarial activity against sporozoite-induced Plasmodium gallinaceum infected in chick assessed as change in cured at 30 mg/kg, sc single dose; type: functional; settings: route subcutaneous
Plasmodium berghei [16] = test: Antimalarial activity against trophozoite-induced Plasmodium berghei infected in mouse assessed as change in mean survival time at 1.25 mg/kg, sc single dose after 72 hrs of infection; type: functional; settings: route subcutaneous
Plasmodium gallinaceum [17] = test: Antimalarial activity against sporozoite-induced Plasmodium gallinaceum infected in chick assessed as change in cured at 7.5 mg/kg, sc single dose; type: functional; settings: route subcutaneous
Plasmodium berghei [18] = test: Antimalarial activity against trophozoite-induced Plasmodium berghei infected in mouse assessed as change in mean survival time at 5 mg/kg, sc single dose after 72 hrs of infection; type: functional; settings: route subcutaneous
Plasmodium berghei [19] = test: Antimalarial activity against trophozoite-induced Plasmodium berghei infected in mouse assessed as change in mean survival time at 2.5 mg/kg, sc single dose after 72 hrs of infection; type: functional; settings: route subcutaneous
Plasmodium falciparum [20] = test: Antimalarial activity against chloroquine-sensitive, pyrimethamine-resistant Plasmodium falciparum Malayan Camp CH/Q infected in Aotus monkey assessed as dose required to >50% cures compound treated for 7 days; type: functional
Plasmodium falciparum [21] = test: Antimalarial activity against Plasmodium falciparum Vietnam Smith in po once daily dosed Owl monkey assessed as curative dose compound treated for 7 days; type: functional
Plasmodium falciparum [22] = test: Antimalarial activity against Plasmodium falciparum Vietnam Oak Knoll in po once daily dosed Owl monkey assessed as curative dose compound treated for 7 days; type: functional
Plasmodium falciparum [23] = test: Antimalarial activity against Plasmodium falciparum Malayan Camp CH/Q infected in po once daily dosed Owl monkey assessed as curative dose compound treated for 7 days; type: functional
Plasmodium vivax [24] = test: Antimalarial activity against Plasmodium vivax New Guinea Chesson in po once daily dosed Owl monkey assessed as curative dose compound treated for 7 days; type: functional
Plasmodium falciparum [25] = test: Antimalarial activity against chloroquine-resistant, pyrimethamine-sensitive Plasmodium falciparum Vietnam Oak Knoll in Aotus monkey assessed as dose required to >50% cures compound treated for 7 days; type: functional
Plasmodium vivax [26] = test: Antimalarial activity against Plasmodium vivax VietnamPalo Alto in po once daily dosed Owl monkey assessed as curative dose compound treated for 7 days; type: functional
Plasmodium berghei [27] = test: Antimalarial activity against trophozoite-induced Plasmodium berghei infected in mouse assessed as change in mean survival time at 640 mg/kg, sc single dose after 72 hrs of infection; type: functional; settings: route subcutaneous
Plasmodium gallinaceum [28] = test: Antimalarial activity against sporozoite-induced Plasmodium gallinaceum infected in chick assessed as change in cured at 120 mg/kg, sc single dose; type: functional; settings: route subcutaneous

Compound | MST (Plasmodium berghei [1]) [days] | MST (Plasmodium berghei [2]) [days] | MST (Plasmodium gallinaceum [3]) [days] | MCD (Plasmodium berghei [4]) [mg/kg] | MIC (Staphylococcus aureus [5]) [µg/mL] | MIC (Enterococcus faecalis) [µg/mL] | MIC (Staphylococcus aureus [7]) [µg/mL] | MST (Plasmodium berghei [9]) [days] | MST (Plasmodium berghei [10]) [days] | MIC (Escherichia coli) [µg/mL] | MST (Plasmodium gallinaceum [12]) [days] | MIC (Shigella sonnei) [µg/mL] | MIC [13] [µg/mL] | MST (Plasmodium berghei [14]) [days] | MIC (Pseudomonas aeruginosa) [µg/mL] | MST (Plasmodium gallinaceum [15]) [days] | MST (Plasmodium berghei [16]) [days] | MST (Plasmodium gallinaceum [17]) [days] | MST (Plasmodium berghei [18]) [days] | MST (Plasmodium berghei [19]) [days] | also measured
COc1cccc(S(=O)(=O)c2ccc3nc(N)nc(N)c3c2)c1 | 13.2 | 1.1 | 0 | 320 | 1 (≈ 3.03 µM) | < 0.25 | 2 (≈ 6.05 µM) | 12.5 | 8.9 | 2.5 (≈ 7.57 µM) | 0 | > 25 | 25 (≈ 75.7 µM) | 3.9 | > 25 | 0 | – | – | – | – | Activity (Gallus gallus): Toxic; MST (Plasmodium gallinaceum [6]): 13.2 days; MST (Plasmodium berghei [8]): 23.9 days; Activity (Plasmodium gallinaceum [11]): Active
Nc1nc(N)c2cc(S(=O)(=O)c3cccc(-c4ccccc4)c3)ccc2n1 | – | 13.9 | 0 | 40 | 1 (≈ 2.66 µM) | < 0.25 | 1.5 (≈ 3.98 µM) | – | 16.9 | > 25 | – | > 25 | > 25 | 21.9 | > 25 | 0 | 4.1 | 2.4 | 13.6 | 9.3 | –
Nc1nc(N)c2cc([S+]([O-])c3cccc(C(F)(F)F)c3)ccc2n1 (stereo unspecified) | – | 12.7 | – | 40 | < 0.25 | < 0.25 | < 0.25 | – | – | > 25 | – | > 25 | – | 21.4 | > 25 | – | 1.1 | 6.4 | 9.1 | 4.1 | –
Nc1nc(N)c2cc([S+]([O-])c3c(F)c(F)cc(F)c3F)ccc2n1 (stereo unspecified) | 16.7 | 0.5 | – | 80 | 1 (≈ 2.81 µM) | < 0.25 | 1.5 (≈ 4.21 µM) | 13.9 | 10.7 | > 25 | – | > 25 | 25 (≈ 70.2 µM) | 0.9 | > 25 | – | – | – | – | – | Activity (Gallus gallus): Toxic; MST (Plasmodium gallinaceum [6]): 14.8 days; Activity (Plasmodium gallinaceum [11]): Active
C=C[C@H]1CN2CC[C@H]1C[C@H]2[C@H](O)c1ccnc2ccc(OC)cc12.Cl [QUININE HYDROCHLORIDE] | – | – | – | – | – | – | – | – | – | – | – | – | – | – | – | – | – | – | – | – | Activity (Plasmodium falciparum [20]): 80 mg/kg; CD90 (Plasmodium falciparum [21]): >80 mg/kg; CD90 (Plasmodium falciparum [22]): 80 mg/kg; CD90 (Plasmodium falciparum [23]): 20 mg/kg; CD90 (Plasmodium vivax [24]): 40 mg/kg; Activity (Plasmodium falciparum [25]): 40 mg/kg; CD90 (Plasmodium vivax [26]): 40 mg/kg
Nc1nc(N)c2cc([S+]([O-])c3ccc(F)cc3)ccc2n1 (stereo unspecified) | – | 5.5 | 1 | 20 | – | – | – | 16.9 | 11.5 | – | 0.7 | – | – | 8.9 | – | 0.7 | – | – | – | – | –
COc1ccc([S+]([O-])c2ccc3nc(N)nc(N)c3c2)cc1 (stereo unspecified) | 25.9 | 0.7 | – | 20 | – | – | – | 13.2 | 10.5 | – | – | – | – | 2.7 | – | – | – | – | – | – | Activity (Gallus gallus): Toxic; MST (Plasmodium gallinaceum [6]): 24.2 days; Activity (Plasmodium gallinaceum [11]): Active
Nc1nc(N)c2cc([S+]([O-])c3ccccc3-c3ccccc3)ccc2n1 (stereo unspecified) | 3.3 | 0.3 | 0 | 640 | 2.5 (≈ 6.94 µM) | < 0.25 | 5 (≈ 13.9 µM) | 0.5 | 0.3 | > 25 | 3.7 | > 25 | 25 (≈ 69.4 µM) | 0.3 | > 25 | 0 | – | – | – | – | MST (Plasmodium berghei [8]): 5.7 days; MST (Plasmodium berghei [27]): 12.7 days
CCN(CC)CCCC(C)Nc1ccnc2cc(Cl)ccc12 (stereo unspecified) [CHLOROQUINE] | – | – | – | – | – | – | – | – | – | – | – | – | – | – | – | – | – | – | – | – | Activity (Plasmodium falciparum [20]): 5 mg/kg; CD90 (Plasmodium falciparum [21]): >20 mg/kg; CD90 (Plasmodium falciparum [22]): 2 mg/kg; CD90 (Plasmodium falciparum [23]): 5 mg/kg; CD90 (Plasmodium vivax [24]): 2.5 mg/kg; Activity (Plasmodium falciparum [25]): >20 mg/kg; CD90 (Plasmodium vivax [26]): 2.5 mg/kg
Nc1nc(N)c2cc(S(=O)(=O)c3ccccc3-c3ccccc3)ccc2n1 | 0.7 | – | – | 640 | > 25 | 0.25 (≈ 0.664 µM) | > 25 | 0.5 | 0.3 | > 25 | – | > 25 | – | 0.3 | > 25 | – | – | – | – | – | MST (Plasmodium berghei [8]): 0.7 days; MST (Plasmodium berghei [27]): 1.1 days
Nc1nc(N)c2cc(S(=O)(=O)c3ccc(Cl)c(Cl)c3)ccc2n1 | – | 10.3 | – | 10 | 0.5 (≈ 1.35 µM) | < 0.25 | 1 (≈ 2.71 µM) | – | – | 2.5 (≈ 6.77 µM) | – | 20 (≈ 54.2 µM) | 20 (≈ 54.2 µM) | 11.2 | > 25 | – | 1.1 | – | 5.9 | 3.5 | MST (Plasmodium gallinaceum [28]): 0 days
Nc1nc(N)c2cc([S+]([O-])c3ccccc3)ccc2n1 (stereo unspecified) | – | 1.1 | 0 | 160 | < 0.25 | < 0.25 | < 0.25 | 15.9 | 11.3 | 1.5 (≈ 5.28 µM) | – | 15 (≈ 52.8 µM) | 20 (≈ 70.3 µM) | 4.9 | > 25 | 0 | – | 0 | – | – | –
Cc1c([S+]([O-])c2ccc3ccccc3c2)ccc2nc(N)nc(N)c12 (stereo unspecified) | – | – | 3.7 | 20 | > 25 | < 0.25 | > 25 | – | – | > 25 | 3.7 | > 25 | – | – | > 25 | 3.7 | 9.7 | 3.7 | 22.9 | 10.7 | –
